Measured values published in patent US7829567B2, “Imino-indeno[1,2-c] quinoline derivatives, their preparation processes, and pharmaceutical compositions comprising the same” (Kaohsiung Medical University, priority 2007, dated 2010).
Structures can show the parent of a compound that is named as a salt. Where two headings read alike, the source gives them in different places.

Experiments:
[1] = test system: human cervical epithelioid carcinoma (HeLa); assay: In vitro anticancer assay (MTT), HeLa; type: cell-based; details: HeLa cells, 48 hrs, mean ± spread, read-out: Anti-proliferative evaluation IC50, HeLa
Procedure: (§1) The resultant tetrazolium salt was then dissolved by the addition of dimethyl sulfoxide. Color was measured spectrophotometrically in a microtiter plate reader at 570 nm and used as a relative measure of viable cell number. The number of viable cells after treatment was compared to solvent and untreated control cells and used to determine the percent of control growth as (Abtreated/Abcontrol)×100, where Ab represents the mean absorbance (n=3). […] D. Heo et al. […] (+)-camptothecin (CPT) and doxorubicin hydrochloride (Dox) were used for comparison with the compounds according to this invention.

[2] = test system: oral squamous cell carcinoma (SAS); assay: In vitro anticancer assay (MTT), SAS; type: cell-based; details: SAS cells, 48 hrs, mean ± spread, read-out: Anti-proliferative evaluation IC50, SAS
Procedure: as §1

[3] = test system: hepatocellular carcinoma (SKHep1); assay: In vitro anticancer assay (MTT), SKHep1; type: cell-based; details: 48 hrs, mean ± spread, read-out: Anti-proliferative evaluation IC50, SKHep1
Procedure: as §1

[4] = test system: human stomach adenocarcinoma (AGS); assay: In vitro anticancer assay (MTT), AGS; type: cell-based; details: AGS cells, 48 hrs, mean ± spread, read-out: Anti-proliferative evaluation IC50, AGS
Procedure: as §1

[5] = test system: human renal clear cell carcinoma; assay: In vitro anticancer assay (MTT), RCC 768-O; type: cell-based; details: RCC 768-O cells, 48 hrs, mean ± spread, read-out: Anti-proliferative evaluation IC50, RCC 768-O
Procedure: as §1

[6] = test system: esophageal carcinoma (CE81T); assay: In vitro anticancer assay (MTT), CE81T; type: cell-based; details: CE81T cells, 48 hrs, mean ± spread, read-out: Anti-proliferative evaluation IC50, CE81T
Procedure: as §1

cancer cells = assay: In vitro anticancer assay, summary over the six cancer cells; type: cell-based; details: summary of Table 2
Procedure: Six cancer cells, i.e., cells of human cervical epithelioid carcinoma (HeLa), hepatocellular carcinoma (SKHep1), oral squamous cell carcinoma (SAS), human stomach adenocarcinoma (AGS), human renal clear cell carcinoma (RCC 768-O) and esophageal carcinoma (CE81T), were treated with the selected compounds as indicated for 48 hrs in a medium containing 10% FBS (3-[4,5-Dimethylthiazol-2-yl]-2,5-diphenyltetrazolium bromide (MTT, 2 mg/mL, […]) was added to the cultures and incubated during the final 1.5 hrs. The resultant tetrazolium salt was then dissolved by the addition of dimethyl sulfoxide. Color was measured spectrophotometrically in a microtiter plate reader at 570 nm and used as a relative measure of viable cell number. The number of viable cells after treatment was compared to solvent and untreated control cells and used to determine the percent of control growth as (Abtreated/Abcontrol)×100, where Ab represents the mean absorbance (n=3). The concentration that killed 50% of cells (IC50) was determined from the linear portion of the curve by calculating the concentration of agent that reduced absorbance in treated cells, as compared to control cells, by 50% (S. D. Heo et al. (1990), Cancer Res., 50:3681-3690). (+)-camptothecin (CPT) and doxorubicin hydrochloride (Dox) were used for comparison with the compounds according to this invention.

[7] = Homo sapiens, SK-HEP1, SKHep1 cells

SMILES | IC50 ([1]; Homo sapiens) [µM] | IC50 [2] [µM] | IC50 [3, 7] [µM] | IC50 ([4]; Homo sapiens) [µM] | IC50 ([5]; Homo sapiens) [µM] | IC50 [6] [µM] | melting point [°C] | IC50 [1] [µM] | IC50 ([3]; SKHep1 cells) [µM] | IC50 [4] [µM] | IC50 [5] [µM] | anticancer activity (in words) (cancer cells)
COc1ccc2c(c1)C(=O)c1c-2c(N2CCNCC2)nc2ccccc12 [Compound 5x, 9-Methoxy-6-(piperazin-1-yl)-11H-indeno[1,2-c]quinolin-11-one] | 15.2 ± 1.5 | > 30 | 25.3 ± 15.5 | 10.1 ± 1.2 | 12.5 ± 1 | > 30 | 150 to 151 | – | – | – | – | –
CN(C)CCNc1nc2ccccc2c2c1-c1ccccc1C2=O [Compound 5a, 6-(2-(Dimethylamino)ethylamino)-11H-indeno[1,2-c]quinolin-11-one] | 2.4 ± 1.2 | 6.6 ± 0.9 | 3.8 ± 1.8 | 7.9 ± 1.5 | 7.1 ± 0.6 | 4.1 ± 3.3 | 148 to 149 | – | – | – | – | –
CON=C1c2ccccc2-c2c(N3CCNCC3)nc3ccccc3c21 (as salt: salt) [Compound 6j, 6-(Piperazin-1-yl)-11H-indeno[1,2-c]quinolin-11-one O-methyl oxime] | – | – | – | – | – | – | 149 to 150 | – | – | – | – | –
COc1ccc2c(c1)C(=NO)c1c-2cnc2ccccc12 [Compound 6a, 9-Methoxy-11H-indeno[1,2-c]quinolin-11-one oxime] | – | – | – | – | – | – | 270 to 271 | – | – | – | – | –
COc1cccc2c1C(=O)c1c-2c(N2CCNCC2)nc2ccccc12 [Compound 5bb] | – | 5.1 ± 0.8 | – | – | – | 4.9 ± 1.5 | – | 0.4 ± 0.1 | 0.7 ± 0.3 | 4.1 ± 1.2 | 1.7 ± 0.5 | broad and potent anticancer activity
COc1ccc2c(c1)C(=O)c1c-2cnc2ccccc12 [Compound 5d, 9-Methoxy-11H-indeno[1,2-c]quinolin-11-one] | – | – | – | – | – | – | 195 to 196 | – | – | – | – | –
COc1ccc2c(c1)C(=O)c1c-2c(Nc2ccc(C(C)=O)cc2)nc2ccccc12 [Compound 5s, 6-(4-Acetylphenylamino)-9-methoxy-11H-indeno[1,2-c]quinolin-11-one] | 7.2 ± 0.9 | 6.5 ± 0.9 | 7.4 ± 2.1 | 5.9 ± 1.4 | 9.1 ± 1.5 | 6.8 ± 1.2 | 251 to 252 | – | – | – | – | –
COc1ccc2c(c1)C(=O)c1c-2c(O)nc2ccccc12 [Compound 5e, 6-Hydroxy-9-methoxy-11H-indeno[1,2-c]quinolin-11-one] | – | – | – | – | – | – | 316 to 317 | – | – | – | – | –
COc1ccc2c(c1)C(=O)c1c-2c(N2CCN(C(=O)CCCl)CC2)nc2ccccc12 [Compound 5hh, 6-[4-(3-Chloropropanoyl)piperazin-1-yl]-9-methoxy-11H-indeno[1,2-c]quinolin-11-one] | – | – | – | – | – | – | 162 to 163 | – | – | – | – | –
COc1ccc2c(c1)C(=O)c1c-2c(N2CCCNCC2)nc2ccccc12 [Compound 5z] | – | 10.2 ± 2.5 | – | – | – | 4.9 ± 1.3 | – | 3 ± 1.3 | 6.2 ± 0.7 | 7.1 ± 1.1 | 10.2 ± 6.5 | –
COc1ccc2c(c1)C(=NOCC(O)CN(C)C)c1c-2c(N2CCN(CC(O)CN(C)C)CC2)nc2ccccc12 (stereo not drawn) [Compound 6z] | – | 9 ± 2.7 | – | – | – | 9 ± 3.6 | – | 1 ± 0.4 | 2.5 ± 1.7 | 18.6 ± 6.2 | 13.9 ± 10.5 | –
COc1ccc(Nc2nc3ccccc3c3c2-c2ccc(OC)cc2C3=O)c(OC)c1 [Compound 5q] | – | > 30 | – | – | – | 22.7 ± 1.5 | – | > 30 | > 30 | > 30 | > 30 | –
ON=C1c2cc(F)ccc2-c2c(N3CCNCC3)nc3ccccc3c21 [Compound 6k] | – | 4.4 ± 1.4 | – | – | – | 3.3 ± 1.8 | – | 1.7 ± 0.2 | 0.9 ± 0.3 | > 30 | 2.3 ± 0.6 | –
COc1ccc2c(c1)C(=NO)c1c-2c(N2CCNCC2)nc2ccccc12 [Compound 6p, 9-Methoxy-6-(piperazin-1-yl)-11H-indeno[1,2-c]quinolin-11-one oxime] | 2.7 ± 1.2 | 6.1 ± 0.9 | 3.8 ± 1.3 | 1.7 ± 0.5 | 1.2 ± 0.9 | 2.6 ± 0.9 | – | – | – | – | – | –
COc1ccc2c(c1)C(=O)c1c-2c(N2CCN(C(=O)CNCCNCCO)CC2)nc2ccccc12 [Compound 5rr] | – | 8.6 ± 0.9 | – | – | – | 6.6 ± 1.9 | – | 6.6 ± 1.3 | 11.9 ± 2.5 | 3.5 ± 1.1 | 7.6 ± 0.1 | –
COc1ccc2c(c1)C(=O)c1c-2c(N2CCN(C(=O)CNCCNCCN)CC2)nc2ccccc12 [Compound 5qq] | – | > 30 | – | – | – | > 30 | – | > 30 | > 30 | 15.5 ± 1.5 | > 30 | –
COc1ccc2c(c1)C(=O)c1c-2c(N2CCN(C(=O)CN3CCNCC3)CC2)nc2ccccc12 [Compound 5tt] | – | 7.4 ± 1.1 | – | – | – | 7.2 ± 1.8 | – | > 30 | 2.2 ± 1.3 | 3.4 ± 0.4 | 4 ± 1.5 | –
COc1ccc2c(c1)C(=O)c1c-2c(N2CCN(C(=O)CCNCCNCCN)CC2)nc2ccccc12 [Compound 5ddd] | – | > 30 | – | – | – | > 30 | – | > 30 | > 30 | 10.8 ± 0.2 | > 30 | –
